Data published in patent US20260232847A1, “Nanoparticles For Imaging And Treatment Of Arthritis And Inflammatory Joint Diseases” (Cornell University, priority 2023, published 2026).

Experiments:
[1] = In vivo joint clearance pharmacokinetics after intraarticular injection, longitudinal IVIS fluorescence imaging; design: species or system rat
Procedure: Animals. All procedures were performed according to protocols approved by the Institutional Animal Care and Use Committee (IACUC) or Cornell University. Sprague Dawley male rats ([…], 300-325 g; Charles River Laboratories, Wilmington, MA) were housed in pairs under a standard 12 h light/dark cycle starting at 6:00 a.m. The animals were allowed to move freely in their cages, fed a low-fluorescence commercial diet (Teklad 2914) and were allowed access to tap water.
Animal Study Design. Rats were randomly assigned to (1) unoperated controls (naïve) and (2) those receiving ipsilateral anterior cruciate ligament transection (ACLT) and contralateral sham to model arthritic pathological joint changes (FIGS. 9A and B). Naïve rats were further split into pilot studies for intraarticular bilateral injection of Cy5 free fluorophore (n=2), unilateral C′ Dot injection with contralateral saline (n=4), and bilateral C′ Dot injection (n=4). Animals that received bilateral surgery were further split into groups where one group received no intraarticular injections (n=4) and one group received bilateral intraarticular injection of C′ Dots one week post-operatively (n=6). Selected animals underwent ACLT surgery on a randomly assigned knee via an open surgical approach under 2.5% isoflurane anesthesia at 1 L/min O2, as previously described. Complete transection of the ACL was confirmed by a cranial drawer test. A single dose of Ethiqa XR (slow release buprenorphine) was administered subcutaneously at 0.65 mg/kg just prior to ACLT surgery. The animals could ambulate, eat, and drink ad libitum after surgery.
Intraarticular injection. Under 3% isoflurane anesthesia, the lower abdominal region (distal to sternum) including the front and back of both stifles was clipped to remove fur and sterilized with three alternating wipes of iodine and ethanol. […]
In vivo longitudinal fluorescence imaging. Longitudinal fluorescence images of rats receiving Cy5 or C′ Dot intraarticular injections were recorded using the In Vivo Imaging System (IVIS) Kinetic (Perkin Elmer; Waltham, MA) over one week for Cy5 injection at the following timepoints: 0, 1, 2, 4, 8, 12, 24, 48, and 72 h, and at 7 d (FIG. 9S3). […] Each week, rat fur was clipped as described above and animal weights were recorded. […] Fluorescence was set at 640 nm/680 nm excitation/emission optimized for Cyanine-5 and C′ Dots.
IVIS image analysis. […] Total Radiant Efficiency (TRE) (area sum of ((p/sec/cm^2/sr)/(ρW/cm^2))) was recorded for each stifle at each time point for the duration of imaging. Average TRE from saline-injected stifles (n=4) was subtracted from all stifle TRE measurements as tissue fluorescence background. […]

[2] = in vivo; cited from earlier work
[3] = in vitro; cited from earlier work

Molecule: CN1C(=CC=CC=CC2=[N+](CCCCCC(=O)O)c3ccc(S(=O)(=O)O)cc3C2(C)C)C(C)(C)c2cc(S(=O)(=O)[O-])ccc21 [Cy5, Sulfo-Cyanine-5-carboxylic acid]
- time constant τ, single exponential decay ([1]; naïve knees, Eq 2): 0.6 h
- time after which fluorescence was undetectable ([1]; naïve rat knees): 3 days
- time of signal peak ([1]; naïve rat knees, Cy5 dye injection): 0 h
- half-life t1/2,1 ([1]; t1/2=ln(2)*τ): 24 min

Molecule: anakinra: established DMARD, anakinra (Kineret)
- half-life in the knee / joint half-life [2]: 1 days
- duration of anti-inflammatory effects [3]: 2 days
